Where a name gives a salt, the structure may show the parent alone. Read-outs that look alike come from different tables or passages of the source.
How the values were obtained:
[1] = tested on: Gram-negative bacteria, especially Escherichia coli and Klebsiella pneumoniae; conditions: compared with Gram-positive bacteria; cited from earlier work
[2] = cited from earlier work
[3] = Toxicity test: acute toxicity (LD50) in oral administration; conditions: mouse, in vivo, male ddY-strain mice, five per group
Description: The acute toxicity (LD50) of compound (I).HCl.H2 O and Pivmecillinam.HCl in oral administration was examined by using male ddY-strain mice (body weight 22 to 25 g; five per group).

Escherichia coli NIHJ = test: Antibacterial activity in oral administration to mice (inhibitory zone of serum samples); assay type: in vivo; conditions: male ddY mice, dose corresponding to 50 mg/kg of Mecillinam, average of n=4, read-out: Diameter of the inhibitory zone
Protocol: Antibacterial activity in oral administration to mice
Compound (I).HCl.H2 O and Pivmecillinam.HCl.
(§1) (b) Experimental procedure
Male ddY mice (6 weeks old, body weight 28±2 g) were used. They were caused to fast for 16 hours before the administration of the test compounds.
An aqueous solution (5 mg/ml) of each of the test compounds was prepared, and orally administered to mice (five per group) in a dose corresponding to 50 mg/kg of Mecillinam.
Blood samples were taken individually from five mice in each group at 30, 60 and 90 minutes after the administration of each compound. The blood samples were immediately centrifuged individually at 3,000 rpm for 15 minutes, and serum samples obtained (each in an amount of 0.2 ml) were combined to give 1 ml of serum for assaying.
(4) Measurement of antibacterial activity
0.2 ml of a suspension of Escherichia coli NIHJ as test organism was added to 5 ml of nutrient agar kept at about 48° C. to give an agar plate. The assaying serum prepared in (3) above was infiltrated into a paper disc (a thick type with a diameter of 8 mm, supplied by Toyo Filter Paper Co., Ltd.), and the paper disc was placed on the agar plate (n=4). It was maintained at 37° C. for 18 hours, and the diameter of the resulting inhibitory zone was measured with respect to each of the serum samples.
The diameter of the inhibitory zone (an average of n=4) measured with respect to each of the serum samples was as shown in Table 1.

[4] = oral, man, 400 mg; cited from earlier work
[5] = Stability in mouse serum (bioautography); assay type: in vitro ADME; conditions: 40% mouse serum, 37° C., pH 7.4 phosphate buffer
Protocol: as §1
4 ml of mouse serum was added to 5.6 ml of 0.1 M phosphate buffer (pH 7.4), and then a portion (0.4 ml) of a solution of 20 mg of compound (I).HCl.H2 O in 1 ml of dimethyl sulfoxide was added. The solution was kept at 37° C. for 10 minutes to form a test solution.
The test solution obtained in (1) above was subjected to the same operation as in Example 1, (b), (2).

[6] = Stability in an artificial intestinal juice (bioautography); assay type: in vitro ADME; conditions: pH about 6.8, 37° C.
Protocol: Stability in an artificial intestinal juice
as §1
A test solution was prepared in the same way as in Test Example 1, (b), (1) except that the artificial intestinal juice described in The Pharmacopoeia of Japan, 10th edition (having a pH of about 6.8 and prepared by adding water to 250 ml of a 0.2 M aqueous solution of potassium dihydrogen phosphate and 118 ml of a 0.2 N aqueous solution of sodium hydroxide to form a solution having a total volume of 1000 ml) was used instead of the artificial gastric juice.
Performed in the same way as in Test Example 1, (b), (2).

[7] = Stability in an artificial gastric juice (bioautography); assay type: in vitro ADME; conditions: pH about 1.2, 37° C.
Protocol: Stability in an artificial gastric juice
(5-methyl-2-oxo-1,3-dioxolen-4-yl)methyl 6-[(hexahydro-1H-azepin-1-yl)methleneamino]penicillanate hydrochloride monohydrate [compound (I).HCl.H2 O]
as §1
A solution of 2 mg of compound (I).HCl.H2 O in 0.2 ml of dimethyl sulfoxide was added to 3.8 ml of the artificial gastric juice described in The Pharmacopoeia of Japan, 10th edition (having a pH of about 1.2 and prepared by adding 24.0 ml of 10% HCl to 2.0 g of sodium chloride and adding water to adjust the total amount to 1000 ml). The solution was maintained at 37° C., and bioautographed as shown below after the lapse of 10 minutes, 30 minutes, and 50 minutes, respectively.
(i) The test solution was spotted on a cellulose plate [Cellulose F (Art 5718 supplied by Merck & Co.)] for thin-layer chromatography, and developed with the upper layer of a mixture of n-butanol, ethanol and water in a ratio of 4:1:5. The plate was dried in the air, and a 10% aqueous solution of mouse serum was sprayed onto the plate. […]
(iv) After the cultivation, the position (Rf value) of an inhibitory zone on the plate against E. coli NIHJ was determined. From this Rf value and Rf values of compound (I).HCl.H2 O and Mecillinam (X) separately determined under the same conditions as in (i) to (iii) above, the compound in the test solution was identified. […]

[8] = 0.5 h, blood letting time 30 min
[9] = in Mus musculus, blood letting time 90 min

CC1(C)S[C@@H]2[C@H](N=CN3CCCCCC3)C(=O)N2[C@H]1C(=O)O [Mecillinam (X), 6-[(hexahydro-1H-azepin-1yl)methyleneamino]penicillanic acid]
antibacterial spectrum [1]: stronger activity against Gram-negative bacteria, especially Escherichia coli and Klebsiella pneumoniae, than against Gram-positive bacteria | absorbability or bioavailability in oral administration [2]: low

CC(C)(C)C(=O)OCOC(=O)[C@@H]1N2C(=O)[C@@H](N=CN3CCCCCC3)[C@H]2SC1(C)C [Pivmecillinam.HCl]
LD50 [3]: 3840 mg/kg | zone of inhibition at 50 mg/kg (Escherichia coli NIHJ; [8]): 23.2 mm | zone of inhibition at 50 mg/kg (Escherichia coli NIHJ; 1 h, blood letting time 60 min): 20.8 mm | zone of inhibition at 50 mg/kg (Escherichia coli NIHJ; [9]): 18 mm

CC(C)(C)C(=O)OCOC(=O)[C@@H]1N2C(=O)[C@@H](N=CN3CCCCCC3)[C@H]2SC1(C)C [Pivmecillinam (X')]
urinary excretion after the 6 hour period [4]: 45%

Cc1oc(=O)oc1COC(=O)[C@@H]1N2C(=O)[C@@H](N=CN3CCCCCC3)[C@H]2SC1(C)C [Compound (I).HCl.H2 O, (5-methyl-2-oxo-1,3-dioxolen-4-yl)methyl 6-[(hexahydro-1H-azepin-1-yl)methleneamino]penicillanate hydrochloride monohydrate]
transformation to Mecillinam (X) in mouse serum [5]: transformed to Mecillinam (X) in 40% mouse serum within ten minutes at 37 °C | stability in the artificial intestinal juice [6]: stable in the artificial intestinal juice | LD50 [3]: 5210 mg/kg | zone of inhibition at 50 mg/kg (Escherichia coli NIHJ; [8]): 23.3 mm | zone of inhibition at 50 mg/kg (Escherichia coli NIHJ; 1 h, blood letting time 60 min): 20 mm | zone of inhibition at 50 mg/kg (Escherichia coli NIHJ; [9]): 17.2 mm | period of stability in the artificial gastric juice [7]: more than 50 minutes

From patent US4416891A, “Ester of 6-[(hexahydro-1H-azepin-1-yl)methyleneamino]penicillanic acid, and its use as antibacterial agent” (priority 1981, dated 1983)
